The supplement of paper PMC10307832

What was measured:
Test in all cases: relative viability (nuclei count vs DMSO), 5 days (fraction); higher = more cells survive
NCI-H2085 = system: NCI-H2085
Summary of the method: (§1)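 The day after seeding in 1536-well plates, lung cancer cell lines were treated by pin tool with a single drug, or with a fixed anchor-drug dose together with five library-drug doses (not always all listed) in √10 steps. After 5 days, a combined fix-and-stain solution (final 0.05% Triton X-100, 1% formaldehyde, 1 ug/ml Hoechst) was added. Nuclei counted on 4× images gave relative viability as treated counts over vehicle counts, reported as the median of duplicate plates.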

NCI-H358 = system: NCI-H358
Summary of the method: as §1

NCI-H1755 = system: NCI-H1755
Summary of the method: as §1

NCI-H1563 = system: NCI-H1563
Summary of the method: as §1

NCI-H838 = system: NCI-H838
Summary of the method: as §1

CAL-12T = system: CAL-12T
Summary of the method: as §1

NCI-H1975 = system: NCI-H1975
Summary of the method: as §1

HCC-366 = system: HCC-366
Summary of the method: as §1

NCI-H1651 = system: NCI-H1651
Summary of the method: as §1

NCI-H1437 = system: NCI-H1437
Summary of the method: as §1

LOU-NH91 = system: LOU-NH91
Summary of the method: as §1

NCI-H1395 = system: NCI-H1395
Summary of the method: as §1

BEN = system: BEN
Summary of the method: as §1

HCC-44 = system: HCC-44
Summary of the method: as §1

NCI-H1355 = system: NCI-H1355
Summary of the method: as §1

NCI-H1650 = system: NCI-H1650
Summary of the method: as §1

EKVX = system: EKVX
Summary of the method: as §1

LU99A = system: LU99A
Summary of the method: as §1

NCI-H460 = system: NCI-H460
Summary of the method: as §1

NCI-H2023 = system: NCI-H2023
Summary of the method: as §1

NCI-H1734 = system: NCI-H1734
Summary of the method: as §1

`O=C(O)c1ccc(-c2c[nH]c3ncc(-c4ccccc4)cc23)cc1C1CCCC1` + CS(=O)(=O)CCNCc1ccc(-c2ccc3ncnc(Nc4ccc(OCc5cccc(F)c5)c(Cl)c4)c3c2)o1 [Lapatinib] (partner 2 µM) was tested, and the relative viability (NCI-H2085; first compound 0.04 µM) was 0.762, the relative viability (NCI-H2085; first compound 0.1265 µM) was 0.947 and the relative viability (NCI-H2085; first compound 0.4 µM) was 0.799. For the same compound, the relative viability (NCI-H2085; first compound 1.265 µM) was 0.508, the relative viability (NCI-H358; first compound 0.04 µM) was 0.438 and the relative viability (NCI-H358; first compound 0.1265 µM) was 0.447. For the same compound, the relative viability (NCI-H358; first compound 0.4 µM) was 0.448, the relative viability (NCI-H358; first compound 1.265 µM) was 0.323 and the relative viability (NCI-H1755; first compound 0.04 µM) was 1.02. The relative viability (NCI-H1755; first compound 0.1265 µM) was 1.11, the relative viability (NCI-H1755; first compound 0.4 µM) was 1.02 and the relative viability (NCI-H1755; first compound 1.265 µM) was 0.967. It also gave a relative viability (NCI-H1563; first compound 0.04 µM) of 1.07, a relative viability (NCI-H1563; first compound 0.1265 µM) of 0.939 and a relative viability (NCI-H1563; first compound 0.4 µM) of 0.933. The relative viability (NCI-H1563; first compound 1.265 µM) was 0.968, the relative viability (NCI-H838; first compound 0.04 µM) was 0.92 and the relative viability (NCI-H838; first compound 0.1265 µM) was 1.4. The relative viability (NCI-H838; first compound 0.4 µM) was 1.11, the relative viability (NCI-H838; first compound 1.265 µM) was 0.915 and the relative viability (CAL-12T; first compound 0.04 µM) was 0.788. For the same compound, the relative viability (CAL-12T; first compound 0.1265 µM) was 0.908, the relative viability (CAL-12T; first compound 0.4 µM) was 0.705 and the relative viability (CAL-12T; first compound 1.265 µM) was 0.423. The relative viability (NCI-H1975; first compound 0.04 µM) was 0.873, the relative viability (NCI-H1975; first compound 0.1265 µM) was 1.02 and the relative viability (NCI-H1975; first compound 0.4 µM) was 1. It also gave a relative viability (NCI-H1975; first compound 1.265 µM) of 0.49, a relative viability (HCC-366; first compound 0.04 µM) of 1.01 and a relative viability (HCC-366; first compound 0.1265 µM) of 0.869. The relative viability (HCC-366; first compound 0.4 µM) was 0.953, the relative viability (HCC-366; first compound 1.265 µM) was 0.981 and the relative viability (NCI-H1651; first compound 0.04 µM) was 0.856. For the same compound, the relative viability (NCI-H1651; first compound 0.1265 µM) was 0.867, the relative viability (NCI-H1651; first compound 0.4 µM) was 0.826 and the relative viability (NCI-H1651; first compound 1.265 µM) was 0.472. It also gave a relative viability (NCI-H1437; first compound 0.04 µM) of 0.794, a relative viability (NCI-H1437; first compound 0.1265 µM) of 0.823 and a relative viability (NCI-H1437; first compound 0.4 µM) of 0.765. For the same compound, the relative viability (NCI-H1437; first compound 1.265 µM) was 0.338, the relative viability (LOU-NH91; first compound 0.04 µM) was 0.814 and the relative viability (LOU-NH91; first compound 0.1265 µM) was 0.837. The relative viability (LOU-NH91; first compound 0.4 µM) was 0.766, the relative viability (LOU-NH91; first compound 1.265 µM) was 0.651 and the relative viability (NCI-H1395; first compound 0.04 µM) was 1.01. It also gave a relative viability (NCI-H1395; first compound 0.1265 µM) of 1.23, a relative viability (NCI-H1395; first compound 0.4 µM) of 0.867 and a relative viability (NCI-H1395; first compound 1.265 µM) of 0.851. The relative viability (BEN; first compound 0.04 µM) was 0.717, the relative viability (BEN; first compound 0.1265 µM) was 0.611 and the relative viability (BEN; first compound 0.4 µM) was 0.815. It also gave a relative viability (BEN; first compound 1.265 µM) of 0.666, a relative viability (HCC-44; first compound 0.04 µM) of 0.959 and a relative viability (HCC-44; first compound 0.1265 µM) of 1.02. The relative viability (HCC-44; first compound 0.4 µM) was 1.1, the relative viability (HCC-44; first compound 1.265 µM) was 0.913 and the relative viability (NCI-H1355; first compound 0.04 µM) was 1.02. It also gave a relative viability (NCI-H1355; first compound 0.1265 µM) of 1.09, a relative viability (NCI-H1355; first compound 0.4 µM) of 0.963 and a relative viability (NCI-H1355; first compound 1.265 µM) of 0.829. For the same compound, the relative viability (NCI-H1650; first compound 0.04 µM) was 0.731, the relative viability (NCI-H1650; first compound 0.1265 µM) was 0.758 and the relative viability (NCI-H1650; first compound 0.4 µM) was 0.725. It also gave a relative viability (NCI-H1650; first compound 1.265 µM) of 0.529, a relative viability (EKVX; first compound 0.04 µM) of 0.218 and a relative viability (EKVX; first compound 0.1265 µM) of 0.216. The relative viability (EKVX; first compound 0.4 µM) was 0.212, the relative viability (EKVX; first compound 1.265 µM) was 0.187 and the relative viability (LU99A; first compound 0.04 µM) was 0.972. It also gave a relative viability (LU99A; first compound 0.1265 µM) of 1.2, a relative viability (LU99A; first compound 0.4 µM) of 0.954 and a relative viability (LU99A; first compound 1.265 µM) of 0.792. For the same compound, the relative viability (NCI-H460; first compound 0.04 µM) was 0.897, the relative viability (NCI-H460; first compound 0.1265 µM) was 1.03 and the relative viability (NCI-H460; first compound 0.4 µM) was 0.801. It also gave a relative viability (NCI-H460; first compound 1.265 µM) of 0.782, a relative viability (NCI-H2023; first compound 0.04 µM) of 0.915 and a relative viability (NCI-H2023; first compound 0.1265 µM) of 0.938. The relative viability (NCI-H2023; first compound 0.4 µM) was 0.779, the relative viability (NCI-H2023; first compound 1.265 µM) was 0.511 and the relative viability (NCI-H1734; first compound 0.04 µM) was 1.07. The relative viability (NCI-H1734; first compound 0.1265 µM) was 1.1, the relative viability (NCI-H1734; first compound 0.4 µM) was 0.955 and the relative viability (NCI-H1734; first compound 1.265 µM) was 0.984.
